Experimental data from PMC5478727, “A Novel Small Molecule GDNF Receptor RET Agonist, BT13, Promotes Neurite Growth from Sensory Neurons in Vitro and Attenuates Experimental Neuropathy in the Rat” (Frontiers in Pharmacology, 2017).

How the values were obtained:
TrkB = target: T1, TrkB (Rattus norvegicus, UniProt Q63604); assay: TrkB phosphorylation assay in MG87TrkB cells; type: cell-based; conditions: BT13 10–100 μM, BDNF positive control
T1 construct: expressed in transfected cells; host or cells: MG87 murine fibroblasts (MG87TrkB)
T1 sequence (Q63604 32-821): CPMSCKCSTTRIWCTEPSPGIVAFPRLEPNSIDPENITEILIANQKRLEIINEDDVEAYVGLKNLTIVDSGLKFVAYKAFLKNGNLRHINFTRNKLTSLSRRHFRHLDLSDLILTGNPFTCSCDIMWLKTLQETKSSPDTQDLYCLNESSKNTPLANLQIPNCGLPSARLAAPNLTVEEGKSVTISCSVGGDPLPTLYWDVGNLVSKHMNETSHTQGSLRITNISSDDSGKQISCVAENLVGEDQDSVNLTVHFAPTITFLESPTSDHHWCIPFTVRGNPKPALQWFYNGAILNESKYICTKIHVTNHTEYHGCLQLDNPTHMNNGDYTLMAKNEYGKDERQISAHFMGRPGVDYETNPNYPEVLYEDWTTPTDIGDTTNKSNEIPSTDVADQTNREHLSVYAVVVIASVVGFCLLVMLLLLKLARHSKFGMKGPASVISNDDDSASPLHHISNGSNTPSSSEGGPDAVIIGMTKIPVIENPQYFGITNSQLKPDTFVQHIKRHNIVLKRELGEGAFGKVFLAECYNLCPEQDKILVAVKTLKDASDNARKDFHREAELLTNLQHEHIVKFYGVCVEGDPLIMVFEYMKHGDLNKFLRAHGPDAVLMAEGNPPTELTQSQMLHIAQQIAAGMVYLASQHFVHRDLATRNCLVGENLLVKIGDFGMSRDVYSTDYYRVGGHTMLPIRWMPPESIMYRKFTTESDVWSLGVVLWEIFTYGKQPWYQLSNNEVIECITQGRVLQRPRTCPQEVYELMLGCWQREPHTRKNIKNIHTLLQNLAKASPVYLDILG
Method: MG87RET, MG87TrkA, or MG87TrkB were plated on 35 mm tissue culture dishes 1–2 days before the experiment to achieve 90–95% of confluency of the cells at the day of stimulation with tested substances. If necessary, cells were transfected with 4 μg/well of GFRα1-, GFRα3-, or green fluorescent protein (GFP)-expressing plasmid using Lipofectamine 2000 (Invitrogen) for DNA delivery as described by manufacturer. Before the experiment cells were starved in serum-free DMEM containing 15 mM HEPES, pH 7.2 and 1% DMSO for 4 h and stimulated with BT13 or neurotrophic factors. Then cells were washed once with ice-cold PBS containing 1 mM Na3VO4 and 1 mM NaF and lysed on ice in 1 ml per well of RIPA-modified buffer (50 mM Tris-HCl, pH 7.4, 150 mM NaCl, 1 mM EDTA, 1% NP-40, 1% TX-100, 10% glycerol, EDTA-free protease inhibitor cocktail (Roche), 1 mM Na3VO4, 2.5 mg/ml of sodium deoxycholate, 1 mM NaF). Plates were incubated at +4°C on the horizontal shaker for 30 min with vigorous shaking. Afterwards, 80–100 μl aliquot was taken from each well to prepare whole cell lysates. This aliquot was mixed with equal volume of 2x Laemmli loading buffer (4% SDS, 20% glycerol, 10% 2-mercaptoethanol, 0.004% bromphenol blue, 0.125 M Tris HCl, pH 6.8) and boiled for 10 min at 100°C. Remaining cell lysates were used for immunoprecipitation of RET or Trk receptors. […]

[1] = Plasma stability, mouse plasma; type: in vitro ADME; conditions: read-out: Plasma stability (% remaining after 1 h)
[2] = Plasma stability, human plasma; type: in vitro ADME; conditions: read-out: Plasma stability (% remaining after 1 h)
cannabinoid receptor CB1 = cannabinoid receptor CB1 (Homo sapiens, UniProt P21554); assay: CEREP CB1 (h) (agonist radioligand); type: binding; conditions: BT13 1 μM; Cat. No. 0036; average of duplicate; read-out: Percentage of inhibition/potentiation from control
Chain of cannabinoid receptor CB1 (P21554 whole entry): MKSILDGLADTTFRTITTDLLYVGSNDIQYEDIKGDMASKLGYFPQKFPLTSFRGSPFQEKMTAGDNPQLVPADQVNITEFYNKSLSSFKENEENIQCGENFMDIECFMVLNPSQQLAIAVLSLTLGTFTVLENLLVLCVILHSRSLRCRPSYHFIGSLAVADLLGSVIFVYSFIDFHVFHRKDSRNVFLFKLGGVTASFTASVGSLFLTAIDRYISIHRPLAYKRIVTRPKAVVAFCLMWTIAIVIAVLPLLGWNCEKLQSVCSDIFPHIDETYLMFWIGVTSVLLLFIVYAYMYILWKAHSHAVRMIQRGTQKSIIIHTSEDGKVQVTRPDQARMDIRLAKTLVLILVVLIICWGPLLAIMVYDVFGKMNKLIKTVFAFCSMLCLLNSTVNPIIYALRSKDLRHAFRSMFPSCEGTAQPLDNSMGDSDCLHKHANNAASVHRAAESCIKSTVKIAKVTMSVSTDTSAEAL

GABA receptor GABAB(1b) = GABA receptor GABAB(1b) (Homo sapiens, UniProt Q9UBS5); assay: CEREP GABAB(1b) (h) (antagonist radioligand); type: binding; conditions: read-out: Percentage of inhibition/potentiation from control
Chain of GABA receptor GABAB(1b) (Q9UBS5 1-844 isoform Q9UBS5-2): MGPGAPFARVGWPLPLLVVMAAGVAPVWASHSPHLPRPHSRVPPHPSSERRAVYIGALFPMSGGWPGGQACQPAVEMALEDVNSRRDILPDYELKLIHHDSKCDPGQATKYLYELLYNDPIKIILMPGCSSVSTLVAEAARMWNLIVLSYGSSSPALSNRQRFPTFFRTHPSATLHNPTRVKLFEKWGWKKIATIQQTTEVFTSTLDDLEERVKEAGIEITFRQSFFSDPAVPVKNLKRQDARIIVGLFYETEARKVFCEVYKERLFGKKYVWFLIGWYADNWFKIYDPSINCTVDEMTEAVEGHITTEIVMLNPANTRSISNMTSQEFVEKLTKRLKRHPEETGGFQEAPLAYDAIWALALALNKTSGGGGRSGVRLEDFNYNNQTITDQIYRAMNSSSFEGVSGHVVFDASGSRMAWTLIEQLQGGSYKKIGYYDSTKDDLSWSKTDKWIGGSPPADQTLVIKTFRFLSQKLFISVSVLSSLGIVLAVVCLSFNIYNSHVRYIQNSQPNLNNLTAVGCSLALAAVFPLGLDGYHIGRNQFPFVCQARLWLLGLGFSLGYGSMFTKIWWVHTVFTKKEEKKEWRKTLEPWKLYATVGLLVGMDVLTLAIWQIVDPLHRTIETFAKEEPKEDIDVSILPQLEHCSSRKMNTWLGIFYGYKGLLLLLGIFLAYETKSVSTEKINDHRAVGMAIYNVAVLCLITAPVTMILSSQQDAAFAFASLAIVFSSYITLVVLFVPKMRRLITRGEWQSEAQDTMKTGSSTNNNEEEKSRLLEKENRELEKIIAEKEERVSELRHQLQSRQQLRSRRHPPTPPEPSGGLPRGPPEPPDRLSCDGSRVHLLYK

histamine receptor H2 = histamine receptor H2 (Homo sapiens, UniProt P25021); assay: CEREP H2 (h) (antagonist radioligand); type: binding; conditions: BT13 1 μM; Cat. No. 1208; average of duplicate; read-out: Percentage of inhibition/potentiation from control
Chain of histamine receptor H2 (P25021 whole entry): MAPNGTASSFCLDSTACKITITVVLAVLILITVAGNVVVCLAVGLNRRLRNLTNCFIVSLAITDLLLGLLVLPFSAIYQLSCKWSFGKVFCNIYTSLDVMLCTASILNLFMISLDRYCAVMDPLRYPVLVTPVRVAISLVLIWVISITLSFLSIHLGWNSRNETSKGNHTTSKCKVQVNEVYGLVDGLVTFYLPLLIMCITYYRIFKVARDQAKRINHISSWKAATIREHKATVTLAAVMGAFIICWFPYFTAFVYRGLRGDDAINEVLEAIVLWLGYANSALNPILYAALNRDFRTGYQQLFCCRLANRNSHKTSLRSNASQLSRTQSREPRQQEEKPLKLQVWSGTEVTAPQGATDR

[3] = target: T2, serotonin receptor 5-HT2A (Homo sapiens, UniProt P28223); assay: CEREP 5-HT2A (h) (agonist radioligand); type: binding; conditions: BT13 1 μM; Cat. No. 0471; average of duplicate; read-out: Percentage of inhibition/potentiation from control
T2 construct: purchased CEREP (contract assay) 0471
T2 sequence (P28223 whole entry): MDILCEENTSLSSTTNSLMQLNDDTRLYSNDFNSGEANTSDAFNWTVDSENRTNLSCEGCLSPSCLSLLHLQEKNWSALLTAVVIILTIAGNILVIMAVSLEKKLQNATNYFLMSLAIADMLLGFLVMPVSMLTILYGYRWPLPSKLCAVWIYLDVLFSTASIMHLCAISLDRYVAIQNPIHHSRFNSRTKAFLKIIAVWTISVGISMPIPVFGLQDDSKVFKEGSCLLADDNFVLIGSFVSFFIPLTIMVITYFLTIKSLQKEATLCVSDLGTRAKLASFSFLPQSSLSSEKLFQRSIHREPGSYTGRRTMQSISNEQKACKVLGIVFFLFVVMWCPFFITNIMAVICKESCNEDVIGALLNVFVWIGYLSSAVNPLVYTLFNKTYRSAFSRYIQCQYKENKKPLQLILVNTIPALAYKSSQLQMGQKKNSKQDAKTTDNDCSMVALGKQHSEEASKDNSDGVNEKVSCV

[4] = target: T3, serotonin receptor 5-HT2C (Homo sapiens, UniProt P28335); assay: CEREP 5-HT2C (h) (antagonist radioligand); type: binding; conditions: BT13 1 μM, Cat. No. 0137, average of duplicate, read-out: Percentage of inhibition/potentiation from control
T3 construct: purchased CEREP (contract assay) 0137, 1003
T3 sequence (P28335 33-458): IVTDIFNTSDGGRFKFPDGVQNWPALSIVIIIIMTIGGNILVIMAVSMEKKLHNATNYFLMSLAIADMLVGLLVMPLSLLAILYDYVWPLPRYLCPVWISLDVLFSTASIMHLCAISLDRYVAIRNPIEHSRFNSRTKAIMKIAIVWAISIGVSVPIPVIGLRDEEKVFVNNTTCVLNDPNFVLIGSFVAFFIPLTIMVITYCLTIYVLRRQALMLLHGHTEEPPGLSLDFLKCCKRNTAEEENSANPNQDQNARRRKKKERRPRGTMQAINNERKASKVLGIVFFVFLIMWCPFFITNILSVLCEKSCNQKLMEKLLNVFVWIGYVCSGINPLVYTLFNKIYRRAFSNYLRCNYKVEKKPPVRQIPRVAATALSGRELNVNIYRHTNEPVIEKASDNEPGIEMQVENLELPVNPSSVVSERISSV

KATP channel = KATP channel (Rattus norvegicus, UniProt Q09429); assay: CEREP KATP channel (antagonist radioligand); type: binding; conditions: BT13 1 μM; Cat. No. 0165; average of duplicate; read-out: Percentage of inhibition/potentiation from control
Chain of KATP channel (Q09429 whole entry): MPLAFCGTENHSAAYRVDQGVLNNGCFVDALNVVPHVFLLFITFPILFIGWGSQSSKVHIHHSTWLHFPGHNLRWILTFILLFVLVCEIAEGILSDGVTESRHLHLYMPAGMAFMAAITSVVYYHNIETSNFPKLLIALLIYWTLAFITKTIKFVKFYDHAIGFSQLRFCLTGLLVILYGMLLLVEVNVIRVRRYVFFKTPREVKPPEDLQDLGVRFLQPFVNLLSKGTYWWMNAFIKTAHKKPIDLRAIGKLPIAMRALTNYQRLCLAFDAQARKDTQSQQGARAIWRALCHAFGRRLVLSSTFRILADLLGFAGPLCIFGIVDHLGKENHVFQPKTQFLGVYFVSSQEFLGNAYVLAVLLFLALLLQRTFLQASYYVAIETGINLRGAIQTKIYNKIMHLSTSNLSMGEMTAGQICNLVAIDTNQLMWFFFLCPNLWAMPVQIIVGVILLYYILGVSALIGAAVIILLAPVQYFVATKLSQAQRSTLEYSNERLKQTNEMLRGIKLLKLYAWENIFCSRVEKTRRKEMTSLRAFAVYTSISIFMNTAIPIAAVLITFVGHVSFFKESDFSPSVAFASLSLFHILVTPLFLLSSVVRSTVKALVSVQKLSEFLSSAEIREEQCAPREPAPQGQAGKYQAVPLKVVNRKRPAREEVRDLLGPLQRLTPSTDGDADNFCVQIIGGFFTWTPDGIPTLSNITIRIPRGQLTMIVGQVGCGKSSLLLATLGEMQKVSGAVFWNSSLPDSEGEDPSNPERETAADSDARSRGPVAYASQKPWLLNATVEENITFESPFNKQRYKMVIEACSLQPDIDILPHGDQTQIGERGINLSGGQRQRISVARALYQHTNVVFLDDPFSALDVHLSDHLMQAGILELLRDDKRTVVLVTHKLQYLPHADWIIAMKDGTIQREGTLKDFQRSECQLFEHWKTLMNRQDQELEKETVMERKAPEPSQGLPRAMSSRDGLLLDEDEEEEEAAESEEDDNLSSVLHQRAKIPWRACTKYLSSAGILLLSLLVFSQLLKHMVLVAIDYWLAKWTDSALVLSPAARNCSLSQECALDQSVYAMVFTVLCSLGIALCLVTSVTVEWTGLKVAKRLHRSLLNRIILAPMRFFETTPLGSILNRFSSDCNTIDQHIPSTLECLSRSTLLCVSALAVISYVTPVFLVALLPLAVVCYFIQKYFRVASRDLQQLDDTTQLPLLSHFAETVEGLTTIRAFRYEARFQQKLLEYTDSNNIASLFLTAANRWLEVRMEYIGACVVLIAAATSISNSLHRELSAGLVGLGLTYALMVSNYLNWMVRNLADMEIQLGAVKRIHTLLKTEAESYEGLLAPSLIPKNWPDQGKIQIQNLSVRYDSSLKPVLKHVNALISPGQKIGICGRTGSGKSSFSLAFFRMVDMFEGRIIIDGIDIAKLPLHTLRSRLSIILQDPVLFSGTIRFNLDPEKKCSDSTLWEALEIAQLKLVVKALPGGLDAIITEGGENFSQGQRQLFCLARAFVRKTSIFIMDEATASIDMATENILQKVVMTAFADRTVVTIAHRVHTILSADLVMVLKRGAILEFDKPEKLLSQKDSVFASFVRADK
Chain of KATP channel (P70673 whole entry partner): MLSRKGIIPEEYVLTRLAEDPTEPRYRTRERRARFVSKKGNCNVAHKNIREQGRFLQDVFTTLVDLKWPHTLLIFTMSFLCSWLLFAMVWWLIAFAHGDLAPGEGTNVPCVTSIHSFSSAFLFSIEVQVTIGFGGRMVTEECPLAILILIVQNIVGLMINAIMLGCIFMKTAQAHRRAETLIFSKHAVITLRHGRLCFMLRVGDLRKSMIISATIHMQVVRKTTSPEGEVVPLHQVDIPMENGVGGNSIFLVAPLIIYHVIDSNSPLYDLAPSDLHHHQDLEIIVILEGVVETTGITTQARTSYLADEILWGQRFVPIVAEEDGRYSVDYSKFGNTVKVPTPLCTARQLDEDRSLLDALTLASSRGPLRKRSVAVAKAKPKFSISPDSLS

[5] = tested on: COMT (catechol-O-methyl transferase); assay: CEREP COMT (catechol-O-methyl transferase); type: biochemical; conditions: BT13 1 μM; Cat. No. 0457; average of duplicate
RET mRNA in DRGs = assay: qPCR of RET mRNA in DRGs of animals with SNL; type: in vivo, rat; conditions: SNL rats; BT13-treated vs vehicle-treated
[6] = Solubility in the binding buffer; type: physicochemical; conditions: concentrations above 50 μM could not be tested

CCN(CC)S(=O)(=O)c1ccc(OC)c(N2CCN(C(=O)c3ccc(F)cc3C(F)(F)F)CC2)c1 [BT13]
TrkB phosphorylation, Western blotting (TrkB): did not produce any detectable increase | remaining at 1 h [1]: 110 ± 3.1% | remaining at 1 h [2]: 97 ± 0.1% | inhibition at 1 µM (cannabinoid receptor CB1): 9% | inhibition at 1 µM (GABA receptor GABAB(1b)): -2% | inhibition at 1 µM (histamine receptor H2): 9% | inhibition at 1 µM [3]: -11% | inhibition at 1 µM [4]: 11% | inhibition at 1 µM (KATP channel): 8% | Percentage of inhibition/potentiation from control [5]: −2% | mRNA level of RET in DRGs (RET mRNA in DRGs): no difference | solubility in the binding buffer [6]: poor solubility
